Holding throughout (experiment): NCI-60 cell line screen, 48 h
In experiment [1] the test system is K562.
The subject of experiment [2] is U-251.
Experiment [3] has as its system HOP-62.
In experiment [4] the test system is KM12.
Experiment [5] deals with SNB-75.
The test system of experiment [6] is 786-0.
The test system of experiment [7] is NCI-H23.
In experiment [8] the test system is TK-10.
The test system of experiment [9] is SNB-19.
Experiment [10] concerns CAKI-1.
The test system of experiment [11] is UACC-62.
The subject of experiment [12] is SK-MEL-2.
Experiment [13] concerns SF-539.
Experiment [14] concerns HOP-92.
For experiment [15], the system named is SK-MEL-28.
Experiment [16] concerns T47D.
Experiment [17] has as its system MDA-N.
Experiment [18] concerns MCF7.
Experiment [19] has as its system MDA-MB-435.

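96-well plates; 48 h exposure; 5 concentrations. Endpoints by linear interpolation between flanking doses. Not reached: highest tested concentration assigned. The concentration for 50% growth inhibition is given as GI50.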 Active and inactive are the calls of the source. Rule as the data show it: active = GI50 up to about 1.1 µM and inactive = higher.

For the molecule `COc1ccc(N2C(=O)C3c4[nH]c5ccccc5c4C4CCCCC4C3C2=O)cc1` (stereo unspecified), the GI50 was 18.2 µM (inactive) in experiment [1]; 15.6 µM (inactive) in [2]; 15 µM (inactive) in experiment [3]; 38.5 µM (inactive) in experiment [4]; 3.5 µM (inactive) in experiment [5]; 11.1 µM (inactive) in [6]. In addition, the GI50 in experiment [7] was 25.8 µM (inactive); in [8], 21.3 µM (inactive); in experiment [9], 50.6 µM (inactive); in experiment [10], 51.3 µM (inactive); in [11] it was 10.3 µM (inactive); in experiment [12], 16.6 µM (inactive). For the same molecule, the results for the GI50 in [13], in [14] and in experiment [15] were 14.5 µM (inactive), 18.2 µM (inactive) and 10.6 µM (inactive), respectively.
For the molecule `C=CCOCCCC(=O)C(=[N+]=[N-])C(=O)OC`, the GI50 in experiment [1], in [2], in [4], in [5], in [6] and in experiment [7] was > 100 µM (inactive) each time. Moreover, the GI50 in experiment [8], in experiment [9], in experiment [10], in [11], in [12] and in [13] was > 100 µM (inactive) in each case. The GI50 in experiment [14] and in experiment [15] was > 100 µM (inactive) throughout.
Take `O=S(=O)(SCc1ccccc1)C(c1ccccc1)c1ccccc1`: the GI50 in [1] was 6.67 µM (inactive); in experiment [2], 32.9 µM (inactive); in experiment [3], > 100 µM (inactive); in [4], 34.1 µM (inactive); in [5], 30.3 µM (inactive); in experiment [6], 31.6 µM (inactive). Further, the GI50 in experiment [7] is 26.5 µM (inactive); in experiment [8], > 100 µM (inactive); in experiment [9], > 100 µM (inactive); in [10], 31 µM (inactive); in experiment [11], 27.5 µM (inactive); in experiment [12], 39.1 µM (inactive). Moreover, the GI50 in experiment [13] was 17.2 µM (inactive); in experiment [14] it was 5.57 µM (inactive); in experiment [15] it was 48.3 µM (inactive).
For the molecule `CCOC(=O)NC1C2CC(=O)C(O2)C1OCc1ccccc1` (stereo unspecified), the GI50 in [1], in [2], in experiment [3], in experiment [4], in experiment [5] and in experiment [6] was > 100 µM (inactive) in each case. Moreover, the GI50 in experiment [7], in experiment [10], in experiment [11], in [12], in experiment [13] and in experiment [14] was > 100 µM (inactive) in each case. Further, in [15], the GI50 is > 100 µM (inactive).
Consider `C[Si](C)(C)CC(N)=O`, for which the GI50 in [1], in experiment [2], in experiment [3], in experiment [4], in experiment [5] and in experiment [6] was > 100 µM (inactive) in each case. Besides, the GI50 in experiment [8], in experiment [9], in [10], in experiment [11], in experiment [12] and in [14] was > 100 µM (inactive) each time. Besides, in [15], the GI50 is > 100 µM (inactive).
Regarding `N#CC(C(=O)CCC(=O)Nc1ccc(Cl)c(Cl)c1)c1ccccc1` (stereo unspecified), the GI50 in experiment [1], in [2], in experiment [3], in [4], in experiment [5] and in [6] was > 100 µM (inactive) each time. Also, the GI50 in experiment [7], in [9], in [10], in experiment [11], in experiment [12] and in [13] was > 100 µM (inactive) in each case. The GI50 in experiment [14] and in [15] was > 100 µM (inactive) throughout.
On to `CC(=O)NNc1nc(C)c(C(=O)/C=C/c2ccc(NC(C)=O)cc2)s1`, for which the GI50 in [1], in experiment [2], in experiment [3], in experiment [4], in experiment [5] and in [6] was > 100 µM (inactive) in each case. Besides, the GI50 in experiment [7], in experiment [8], in [9], in experiment [10], in experiment [11] and in [12] was > 100 µM (inactive) in each case. The GI50 in experiment [13], in [14] and in experiment [15] was > 100 µM (inactive) each time.
As to `COc1ccc2nc(C(=O)c3ccccc3)c(C)cc2c1`, the GI50 in experiment [1] is 0.859 µM (active); in experiment [2], 3.5 µM (inactive); in experiment [3] it was 6.47 µM (inactive); in experiment [4], 6.58 µM (inactive); in [5], 2.96 µM (inactive); in experiment [6] it was 7.03 µM (inactive). For the same molecule, the GI50 is 3.71 µM (inactive) in experiment [7]; 11.1 µM (inactive) in [8]; 9.16 µM (inactive) in [9]; 7.91 µM (inactive) in experiment [10]; 5.26 µM (inactive) in [11]; 6.27 µM (inactive) in experiment [12]. The GI50 in [13] was 3.05 µM (inactive); in experiment [14] it was 7.13 µM (inactive); in experiment [15], 3.91 µM (inactive).
With `CC1(C)OC2COC3(CNO)OC(C)(C)OC3C2O1` (stereo unspecified), the GI50 in experiment [1], in experiment [2], in [3], in experiment [4], in experiment [5] and in [6] was > 100 µM (inactive) in each case. The GI50 in [7], in [8], in [9], in [10], in experiment [11] and in [12] was > 100 µM (inactive) in each case. The GI50 in experiment [13] is > 100 µM (inactive); in experiment [14] it was 65.8 µM (inactive); in experiment [15] it was > 100 µM (inactive).
As for `COC1C=C(Nc2cccc(Cl)c2)C(=O)C1` (stereo unspecified), the GI50 was 41.6 µM (inactive) in experiment [1]; 32.3 µM (inactive) in experiment [2]; > 100 µM (inactive) in [3]; 71 µM (inactive) in experiment [4]; 43.9 µM (inactive) in experiment [5]; > 100 µM (inactive) in [6]. Besides, the GI50 in experiment [7] is 41.5 µM (inactive); in experiment [8] it was > 100 µM (inactive); in experiment [9] it was 64.3 µM (inactive); in experiment [10], 50.9 µM (inactive); in [11], 60 µM (inactive); in [12], 71 µM (inactive). Also, the GI50 is 58.2 µM (inactive) in [13], 39.5 µM (inactive) in experiment [14] and > 100 µM (inactive) in experiment [15].
For `CCC(C)C1=C(O)[N+]2([O-])Oc3ccc(-c4c(O)c(O)c(-c5ccc(O)cc5)c(OC(C)=O)c4OC(C)=O)cc3OC2(C(C)CC)C(=O)N1O` (stereo unspecified), the GI50 in [1] was 35.4 µM (inactive); in [2], > 50 µM (inactive); in [4] it was > 50 µM (inactive); in experiment [5], > 50 µM (inactive); in [6] it was 13.7 µM (inactive); in experiment [16] it was > 50 µM (inactive). Also, the GI50 was 17.1 µM (inactive) in experiment [17]; > 50 µM (inactive) in experiment [7]; > 50 µM (inactive) in experiment [8]; > 50 µM (inactive) in [9]; > 50 µM (inactive) in [10]; > 50 µM (inactive) in [18]. Besides, the GI50 is 16.8 µM (inactive) in experiment [19]; > 50 µM (inactive) in experiment [11]; > 50 µM (inactive) in experiment [12]; > 50 µM (inactive) in experiment [13]; > 50 µM (inactive) in experiment [15].
Take `CN(C)c1ccc(/C=C2\N=C(c3ccc(N)cc3)OC2=O)cc1`: the GI50 in [1] is 38.8 µM (inactive); in experiment [2], > 100 µM (inactive); in [3], > 100 µM (inactive); in experiment [4] it was > 100 µM (inactive); in experiment [5], > 100 µM (inactive); in experiment [6], > 100 µM (inactive). Further, the GI50 in experiment [7], in [8], in experiment [9], in [10], in experiment [11] and in [12] was > 100 µM (inactive) in each case. In addition, the GI50 in [13], in experiment [14] and in [15] was > 100 µM (inactive) each time.
As to `COc1cc2c(cc1OC)C1[C@@H](c3ccccc3)OCN1CC2` (stereo partly specified), the GI50 in experiment [1] is > 63.1 µM (inactive); in experiment [2] it was > 100 µM (inactive); in experiment [3] it was > 100 µM (inactive); in [4] it was > 100 µM (inactive); in [5], 60.8 µM (inactive); in experiment [6], > 100 µM (inactive). Further, the GI50 in [7], in experiment [8], in [9], in [10], in [11] and in [12] was > 100 µM (inactive) throughout. Moreover, the figures for the GI50 in experiment [13], in experiment [14] and in [15] were > 100 µM (inactive), 83.4 µM (inactive) and > 100 µM (inactive), respectively.

The values above are taken from ChEMBL document CHEMBL1201862, “PubChem BioAssay data set” (2004).
